Data on six compounds can be found in article PMC11187217, “Anti-adhesive, anti-biofilm and fungicidal action of newly synthesized gemini quaternary ammonium salts” (Scientific Reports, 2024).

Data set [1] relates to C. albicans ATCC 10231 biofilm. Nature of the data set: Biofilm eradication (crystal violet). The format is cell-based, Candida albicans. Particulars: 24 h biofilm, 4 h exposure, concentration not given (tested 20–1280 µM). Here is the method: The culture of C. albicans ATCC 10231 was incubated with shaking for 18 h at 37 °C, centrifuged (1000 rcf, 5 min), and the pellet was suspended in PBS (pH 7.4) until OD = 0.8. 100 µl of the obtained culture was spotted into the wells of a 96-well plate and it was incubated at 37 °C for 24 h. After incubation, the culture was removed from the wells and rinsed with sterile distilled water. Then, 100 µl of the tested gemini QAS at concentrations of 20–1280 µM were added and incubated for 4 h at 37 °C. After this time, the compounds were removed, and the plates were rinsed with sterile distilled water and placed in an oven (60 °C, 20 min) to strengthen the formed biofilm. Then 100 µl of crystal violet (0.1%) was added and stained for 5 min. The plates were rinsed with sterile distilled water until there were no traces of purple in the rinse water, and 150 µl of washing mixture (1% SDS, 50 mmol HCl, 100% isopropanol) was added. Absorbance was measured at λ = 590 nm (BioTek 800 TS Absorbance Reader). The negative control was the medium, while the positive control was the culture wells to which the tested gemini QAS had not been added. The experiment was carried out based on a modification of the method of Obłąk et al.. The tested samples were performed in 3 repetitions.

Data set [2] has as its system Salmonella Typhimurium TA98. Nature of the data set: Mutagenicity, Ames test. Particulars: for Number of colonies: ± SD. Here is the method:
The mutagenic potential of the tested gemini QAS was determined using the Ames test[83] using Salmonella Typhimurium TA98 and Salmonella Typhimurium TA100 with defects in histidine biosynthesis. The culture of S. Typhimurium TA98 and S. Typhimurium TA100 was incubated with shaking at 37 °C for 18 h, centrifuged (3000 rpm, 5 min) and OD = 1.5 was determined, at a wavelength of λ = 590 nm. The agar was dissolved and cooled to 42 °C. […] The media were incubated for 48 h at 37 °C. The positive control for the S. Typhimurium TA98 strain was acriflavin (100 μg/ml), and for the S. Typhimurium TA100 strain, sodium azide (15 μg/ml). The negative control was the culture without tested compound and with NaCl (0,9%). After incubation, the colonies were counted and the mutagenicity index (MR) was determined—the ratio of the number of revertants resulting from the mutagenic effect of the tested compound to the number of spontaneous revertants. Experiment was performed in three repetitions.

For a further data set, the system named is C. albicans ATCC 10231. Nature of the data set: Adhesion of C. albicans to stainless steel surface. The format is cell-based, Candida albicans. Particulars: concentration not stated (tested 80–640 µM). Here is the method:
The effect of gemini QAS on the adhesion of C. albicans ATCC 10231 was determined using a modification of the method of Obłąk et al.. […] After incubation, the culture was centrifuged (1000 rcf, 5 min), and the resulting pellet was suspended in PBS (pH 7.4) until OD = 0.8 (λ = 590 nm). • In the case of testing the polystyrene surface, 100 µl of tested gemini QAS at concentrations of 20–1280 µM was added to the wells of a 96-well titration plate, incubated for 2 h at 37 °C, rinsed with sterile distilled water, and then spotted with 100 µl of the obtained culture and incubated at 37 °C for 4 h. After this time, the culture was removed, the plates were rinsed with sterile distilled water and placed in an oven (60 °C, 20 min). Then, crystal violet (0.1%) was added to the wells of the titration plate, stained for 5 min and rinsed with sterile distilled water until all traces of violet were removed from the rinsed water. Then the washing mixture (1% SDS, 50 mmol HCl, 100% isopropanol) was added. The absorbance of the samples was read using a spectrophotometer (BioTek 800 TS Absorbance Reader) at λ = 590 nm. The positive control was the culture wells to which the tested gemini QAS were not added, and the negative control was the medium. The experiment was performed in 3 repetitions. • When the tested surface was stainless steel (round washers Ø 0.4 cm), silicone (0.5 cm long fragments of Foley catheters) or glass (1 cm^2 coverslips), the tested materials were incubated for 2 h at 37 °C with shaking (100 rpm) in the presence of the tested gemini QAS at concentrations of 80–640 µM. Then, the materials were rinsed with sterile distilled water, transferred to tubes with culture and incubated for 4 h at 37 °C with shaking (100 rpm). After incubation, the materials were rinsed with sterile distilled water. […] Next, the washing mixture (1% SDS, 50 mmol HCl, 100% isopropanol) was added and the absorbance of the samples was read using a spectrophotometer (BioTek 800 TS Absorbance Reader) at λ = 590 nm. […] After this time, the colonies growing on the plates were counted. […]

A short description of data set [3]: Critical micelle concentration (CMC), conductometric method. The format is physicochemical. The conditions noted are these: double distilled water, 25 °C. An excerpt:
Alkanoyl chlorides (dodecanoyl, tetradecanoyl and hexadecanoyl) were obtained from Sigma-Aldrich. Anhydrous lactic acid (99%, crystalline) was purchased from Alfal. All solvents were obtained from Avantor Performance Materials or Stanlab and used as received. Methanol (solvent) for counterions exchange reactions was analytical grade (Avantor Performance Materials) and was additionally dried over CaH2 prior synthesis. Deuterated solvents were from Sigma-Aldrich. CMC values of surfactants were measured conductometrically in double distilled water at 25 °C.
Elemental analysis was conducted utilizing Vario EL cube (Elementar, Germany) calibrated on acetanilide. Mass spectra were gain by electrospray ionization mass spectroscopy (ESI–MS) (micrOTOF-Q instrument; Bruker Daltonics, Germany). The ESI–MS aparatus was operated in the positive ion mode (calibrated with the Tunemix™ mixture; Bruker Daltonics; Germany), followed by spectra analysis by the DataAnalysis 3.4 software (Bruker Daltonics, Germany)—resolution of at least 5 ppm. Proton NMR and ^13C NMR measurements were performed on a Bruker AMX-500 spectrometer, utilizing CDCl3 or DMSO-d6 as a solvent. Proton and ^13C chemical shifts (given in ppm) were calibrated to TMS (δ = 0 ppm) as an internal reference. Krafft points were measured according to procedures described in our previous studies Lamch et al.,[82]. Values of CMC for all surfactants were measured utilizing the conductometric method for the compounds’ solutions in milliQ water in the same manner as described in Kula et al.. For all spectra: ^1H NMR, ^13C NMR and ESI–MS as well as appropriate comments see Electronic Supplementary Material.

On to `CCCCCCCCCCCCCCCC(=O)N(CCCN(CCC[N+](C)(C)C)C(=O)CCCCCCCCCCCCCCC)CCC[N+](C)(C)C` [2xC16MeCO3G3, dimethyl{{3-[N-(3-{N-[3-(dimethylammonium)propyl]hexadecylamido}propyl}hexadecylamido}propyl}}ammonium dimethylcarbonate], for which, in data set [1], the “Destruction (eradication) of formed C. albicans biofilm” value (“Destruction (eradication)” for short) is on record as “approximately 80%”. In addition, in data set [2] (TA98, ¼ MIC), the “Mutagenicity ratio (MR)” value is 1.55 and the Number of colonies came out at 35.3 ± 5.03. Also, in data set [2] (TA98, ½ MIC), the “Mutagenicity ratio (MR)” value came out at 1.85 and the Number of colonies was determined as 42.0 ± 2.16. Also, the “Inhibition of adhesion of C. albicans to stainless steel” value (“Inhibition of adhesion of C. albicans” for short) in the data set with C. albicans ATCC 10231 is “approximately 50%”. Further, in data set [3], the CMC was 1.6*10^–6 mol/dm^3.
In the case of `CCCCCCCCCCCCCCCC(=O)N(CCCN(CCC[N+](C)(C)C)C(=O)CCCCCCCCCCCCCCC)CCC[N+](C)(C)C` [2xC16LaG3], the “Destruction (eradication)” value in data set [1] is recorded as “approximately 20%”. In data set [2] (TA98, ¼ MIC), the “Mutagenicity ratio (MR)” value is given as 1.12 and the Number of colonies was determined as 30.7 ± 1.15. Besides, in data set [2] (TA98, ½ MIC), the “Mutagenicity ratio (MR)” value is 1.35 and the Number of colonies was 37.0 ± 3.46. In addition, the CMC in data set [3] is reported as 3.7*10^–7 mol/dm^3.
`CCCCCCCCCCCC(=O)N(CCCN(CCC[N+](C)(C)C)C(=O)CCCCCCCCCCC)CCC[N+](C)(C)C` [2xC12BrG3]: the “Destruction (eradication)” value in data set [1] was “approximately 80%”. Further, in data set [2] (TA98, ¼ MIC), the “Mutagenicity ratio (MR)” value stood at 0.82 and the Number of colonies amounted to 18.7 ± 2.31. Moreover, in data set [2] (TA98, ½ MIC), the “Mutagenicity ratio (MR)” value stood at 7.67 and the Number of colonies is 174.5 ± 9.19. In addition, in data set [3], the CMC is recorded as 6.4*10^–5 mol/dm^3.
`CCCCCCCCCCCCCC(=O)N(CCCN(CCC[N+](C)(C)C)C(=O)CCCCCCCCCCCCC)CCC[N+](C)(C)C` [2xC14BrG3]: in data set [1], the “Destruction (eradication)” value is “approximately 80%”. Further, in data set [2] (TA98, ¼ MIC), the “Mutagenicity ratio (MR)” value stood at 1.08 and the Number of colonies amounted to 29.7 ± 2.08. For the same compound, in data set [2] (TA98, ½ MIC), the “Mutagenicity ratio (MR)” value worked out at 1.75 and the Number of colonies is on record as 48.0 ± 2.83. In data set [3], the CMC is reported as 5.4*10^–6 mol/dm^3.
As to `CCCCCCCCCCCCCCCC(=O)N(CCCN(CCC[N+](C)(C)C)C(=O)CCCCCCCCCCCCCCC)CCC[N+](C)(C)C` [2xC16BrG3], the “Destruction (eradication)” value in data set [1] is reported as “approximately 80%”. The “Mutagenicity ratio (MR)” value is reported as 1.51 in data set [2] (TA98, ¼ MIC) and 1.85 in data set [2] (TA98, ½ MIC). Besides, the Number of colonies in data set [2] (TA98, ¼ MIC) stood at 34.3 ± 5.69; in data set [2] (TA98, ½ MIC), 42.0 ± 5.57. Further, the “Inhibition of adhesion of C. albicans” value in the data set with C. albicans ATCC 10231 is recorded as “approximately 60%”. Besides, in data set [3], the CMC is recorded as 4.6*10^–7 mol/dm^3.
With `CCCCCCCCCCCC(=O)N(CCCN(CCC[N+](C)(C)C)C(=O)CCCCCCCCCCC)CCC[N+](C)(C)C` [2xC12MeCO3G3, dimethyl{{3-[N-(3-{N-[3-(dimethylammonium)propyl]dodecylamido}propyl}dodecylamido}propyl}}ammonium dimethylcarbonate], the “Destruction (eradication)” value in data set [1] is “approximately 40%”. In addition, in data set [2] (TA98, ¼ MIC), the “Mutagenicity ratio (MR)” value was 1.57 and the Number of colonies was 35.8 ± 2.63. In addition, in data set [2] (TA98, ½ MIC), the “Mutagenicity ratio (MR)” value was determined as 2.59 and the Number of colonies was 59.0 ± 2.65. For the same compound, in the data set with C. albicans ATCC 10231, the “Inhibition of adhesion of C. albicans” value is on record as “approximately 60%”. The CMC in data set [3] is 1.8*10^–4 mol/dm^3.
